Where a name gives a salt, the structure may show the parent alone.
Assay: Test Example 1: concentration of compound A in plasma and brain after oral administration to rats
Assay type: in vivo, rat
Conditions: for Brain MRT (mean residence time) of the compound A / Brain T1/2 (elimination half-life) of the compound A / Plasma MRT (mean residence time) of the compound A / Plasma T1/2 (elimination half-life) of the compound A: rat (Crl: CD male), oral, without fasting, 56 mg/kg compound A maleate or 58 mg/kg compound A oxide maleate; for Brain MRT (mean residence time) of the compound A / Brain T1/2 (elimination half-life) of the compound A: compound A measured in brain; for Plasma MRT (mean residence time) of the compound A / Plasma T1/2 (elimination half-life) of the compound A: compound A measured in plasma
Procedure: In the compound A administration solution, the concentration of the compound A maleate was adjusted to be 14 mg/mL by dissolving the compound A maleate in a physiological saline solution. In the compound A oxide administration solution, the concentration of the compound A oxide maleate was adjusted to be 14.54 mg/mL by dissolving the compound A oxide maleate in a physiological saline solution.
Each of the administration solutions was orally administered to rats (Crl: CD strain male rat: 8 weeks old) without fasting. The dosage was set at 56 mg/kg for the compound A administration group and 58 mg/kg for the compound A oxide administration group.
At 0.25, 0.5, 1, 2, 5, 8, 10 and 12 hours after the administration, for each group, heparinized whole blood was collected from the aorta abdominalis under mild ether anesthesia, and then the rats were killed by exsanguination and the brains were excised.
The collected blood was centrifuged at 4° C. for 10 minutes at approximately 1600×g to obtain the plasma. To 100 μL of the resulting plasma was added 900 μL of distilled water containing 25 ng/mL of the internal standard substance and 25 μL of phosphoric acid, and the resulting mixture was stirred, followed by adding to a solid-phase extraction plate (Oasis HLB 10 mg or 30 mg, manufactured by Waters) which was conditioned with methanol and distilled water. The solid-phase extraction plate was washed with 2 mL of distilled water, followed by eluting with 2 mL of acetonitrile. The eluate was concentrated and dried-up and then dissolved in a mobile phase A solution, followed by centrifuging at 4° C. for 10 minutes at approximately 1600×g. The resulting supernatant was subjected to a liquid chromatography-tandem mass spectrometer to determine the concentration of the compound A in the plasma of each group.
The excised brains were homogenized with 25% ammonia water/methanol (1:49) (10-fold volume of the wet brain weight) and then 2 mL of the homogenate was centrifuged at 4° C. for 10 minutes at approximately 1600×g to separate the supernatant. To the sediment was added 2 mL of 25% ammonia water/methanol (1:49), followed by centrifuging at 4° C. for 10 minutes at approximately 1600×g. These supernatants were combined and concentrated and dried-up and then dissolved in 1 mL of distilled water containing 25 ng/mL of the internal standard substance. To the resulting solution was added 25 μL of phosphoric acid and the resulting mixture was stirred, followed by subjecting to a solid-phase extraction operation similar to that for the above plasma. The resulting eluate was concentrated and dried-up and then dissolved in the mobile phase A solution or 50% methanol, followed by centrifuging at 4° C. for 10 minutes at approximately 1600×g. The resulting supernatant was subjected to the liquid chromatography-tandem mass spectrometer to determine the concentration of the compound A in the brain of each group.
The following instruments and conditions were used for the measurement of the concentration of the compound A.

[1] = rat, oral administration of the compound A oxide, result in words

Brain MRT (mean residence time) of the compound A	Brain T1/2 (elimination half-life) of the compound A	Plasma MRT (mean residence time) of the compound A	Plasma T1/2 (elimination half-life) of the compound A	concentration of the compound A in the plasma and brain [1]	residence time of the compound A in the body [1]	SMILES
3.01 h	1.53 h	2.86 h	1.56 h			O=C(O)/C=C\C(=O)O.OC1CN(CCCOCCc2ccc3sccc3c2)C1 [Compound A Maleate, 1-(3-(2-(1-benzothiophen-5-yl)ethoxy)propyl)azetidin-3-ol maleate, reference compound]
5.72 h	2.28 h	5.41 h	2.69 h			[O-][s+]1ccc2cc(CCOCCCN3CC(O)C3)ccc21 (stereo not shown) [Compound A oxide Maleate, 1-(3-(2-(1-benzothiophen-5-yl)ethoxy)propyl)azetidin-3-ol S-oxide maleate]
				maintained at a high concentration	prolonged	[O-][s+]1ccc2cc(CCOCCCN3CC(O)C3)ccc21 (stereo not shown) [compound A oxide, 1-(3-(2-(1-benzothiophen-5-yl)ethoxy)propyl)azetidin-3-ol S-oxide]

— patent US8026232B2, “Benzothiophene oxide derivative and salt thereof” (Toyama Chemical Co., Ltd., priority 2008, dated 2011)
